# Test results as given in ChEMBL document CHEMBL1201862, “PubChem BioAssay data set” (2004).
# The source made the active and inactive calls.
# Experiments:
# [1] = A cytotoxicity screen of small molecule inhibitors of the PhoP region in Salmonella typhi identified in the primary screen. [Related pubchem assays: 1850, 1864, 1985 ]; format: functional
# [2] = inhibitors of intracellular T. cruzi replication, confirmation, NIH3T3 host cells, beta-gal luminescence (AID 2044); format: functional, cell-based;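 also: intracellular parasites grown in NIH/3T3 mouse fibroblasts as host cells; luminescent beta-galactosidase reporter signal from transgenic T. cruzi replicating inside host cells; inhibitors lower the luminescence signal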
# [3] = growth suppression of PTEN-null colon cells, dose response, cell-based, HCT116 PTEN knockout (AID 1047); format: functional;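 also: HCT116 colon tumor cells with PTEN knocked out; cells exposed to compound for 60 hours before readout; potency for loss of cell viability measured by luminescence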
# [4] = cytotoxicity toward NIH3T3 fibroblasts, dose response, counter-screen, cell-based, ATP luminescence, mouse fibroblasts (AID 2010); format: functional;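 also: cells exposed to compound for about 90 hours before reading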
# [5] = growth suppression of beta-catenin-knockout colon cells, dose response, cell-based, HCT116, human colon tumor (AID 1045); format: functional;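 also: HCT116 colon tumor cells with beta catenin knocked out; cells exposed to compound for 60 hours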
# [6] = molecular target: Glyceraldehyde-3-phosphate dehydrogenase (Homo sapiens, UniProt P04406)
# Glyceraldehyde-3-phosphate dehydrogenase, sequence (P04406 whole entry): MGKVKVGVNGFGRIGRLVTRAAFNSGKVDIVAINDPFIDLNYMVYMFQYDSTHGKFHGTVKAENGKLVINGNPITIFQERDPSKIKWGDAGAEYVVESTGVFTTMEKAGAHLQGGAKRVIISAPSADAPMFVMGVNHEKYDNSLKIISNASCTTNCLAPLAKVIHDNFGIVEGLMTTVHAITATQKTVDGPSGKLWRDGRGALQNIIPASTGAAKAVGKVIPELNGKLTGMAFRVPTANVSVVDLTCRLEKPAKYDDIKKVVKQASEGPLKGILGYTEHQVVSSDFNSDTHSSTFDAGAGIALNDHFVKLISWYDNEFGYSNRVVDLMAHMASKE
# [7] = molecular target: T1, Alkaline phosphatase, tissue-nonspecific isozyme (Homo sapiens, UniProt P05186); experiment: human TNAP enzyme inhibitors, SAR follow-up, biochemical, luminescent, dose response (AID 1056)
# T1 sequence (P05186 whole entry): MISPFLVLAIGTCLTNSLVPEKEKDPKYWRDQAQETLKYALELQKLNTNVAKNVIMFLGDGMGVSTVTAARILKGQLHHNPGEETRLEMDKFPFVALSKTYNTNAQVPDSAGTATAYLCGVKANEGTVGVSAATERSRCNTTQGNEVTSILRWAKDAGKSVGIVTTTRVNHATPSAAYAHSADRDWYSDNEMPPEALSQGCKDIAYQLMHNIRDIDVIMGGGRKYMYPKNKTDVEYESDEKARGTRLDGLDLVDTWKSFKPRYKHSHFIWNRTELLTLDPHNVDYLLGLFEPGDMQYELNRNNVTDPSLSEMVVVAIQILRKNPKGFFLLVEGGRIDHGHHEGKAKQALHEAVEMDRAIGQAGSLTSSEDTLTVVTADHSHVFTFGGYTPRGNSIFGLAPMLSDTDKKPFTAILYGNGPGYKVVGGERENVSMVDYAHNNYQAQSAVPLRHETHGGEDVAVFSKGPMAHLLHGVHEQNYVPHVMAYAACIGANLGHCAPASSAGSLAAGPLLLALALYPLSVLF
# [8] = molecular target: T2, Tyrosine-protein phosphatase non-receptor type 7 (Homo sapiens, UniProt P35236); experiment: inhibitors of human HePTP phosphatase, […], biochemical, absorbance, leukemia target (AID 521); format: functional
# T2 sequence (P35236 whole entry): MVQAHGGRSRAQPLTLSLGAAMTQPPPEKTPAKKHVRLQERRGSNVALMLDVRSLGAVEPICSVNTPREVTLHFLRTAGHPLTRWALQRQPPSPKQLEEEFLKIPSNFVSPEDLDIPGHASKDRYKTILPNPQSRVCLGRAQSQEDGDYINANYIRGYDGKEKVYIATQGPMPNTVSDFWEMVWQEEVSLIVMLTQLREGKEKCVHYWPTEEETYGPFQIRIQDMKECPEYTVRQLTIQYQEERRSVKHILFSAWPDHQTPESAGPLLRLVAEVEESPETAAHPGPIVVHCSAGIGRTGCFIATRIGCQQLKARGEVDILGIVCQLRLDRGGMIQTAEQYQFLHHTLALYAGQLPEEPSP
# [9] = molecular target: DNA dC->dU-editing enzyme APOBEC-3A (Homo sapiens, UniProt P31941); experiment: Dose Response confirmation of small molecule APOBEC3A DNA Deaminase Inhibitors via a fluorescence-based single-stranded DNA deaminase assay. [Related pubchem assays (depositor defined):AID493011, AID493024]; format: functional
# DNA dC->dU-editing enzyme APOBEC-3A, sequence (P31941 whole entry): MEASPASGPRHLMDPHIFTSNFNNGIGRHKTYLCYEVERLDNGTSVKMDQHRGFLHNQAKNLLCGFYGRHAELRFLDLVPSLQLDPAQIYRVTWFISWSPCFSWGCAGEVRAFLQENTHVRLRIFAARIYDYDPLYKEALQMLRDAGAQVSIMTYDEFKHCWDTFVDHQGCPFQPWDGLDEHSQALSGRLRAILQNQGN
# [10] = molecular target: DNA dC->dU-editing enzyme APOBEC-3G (Homo sapiens, UniProt Q9HC16); format: functional;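 also: Dose-response counterscreen measuring inhibition of APOBEC3G DNA deaminase activity, run while confirming APOBEC3A inhibitors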
# DNA dC->dU-editing enzyme APOBEC-3G, sequence (Q9HC16 whole entry): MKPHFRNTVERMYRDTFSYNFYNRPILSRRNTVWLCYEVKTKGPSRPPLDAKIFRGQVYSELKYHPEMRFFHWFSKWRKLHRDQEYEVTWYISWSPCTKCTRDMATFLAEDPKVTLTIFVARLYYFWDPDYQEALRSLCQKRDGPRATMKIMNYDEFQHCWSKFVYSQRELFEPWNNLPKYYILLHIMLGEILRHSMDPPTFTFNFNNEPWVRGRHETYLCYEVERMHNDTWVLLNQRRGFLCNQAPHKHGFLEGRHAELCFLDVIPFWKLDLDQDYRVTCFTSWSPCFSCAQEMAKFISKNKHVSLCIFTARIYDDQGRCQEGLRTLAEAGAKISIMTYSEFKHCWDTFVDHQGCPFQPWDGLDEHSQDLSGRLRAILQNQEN
# [11] = molecular target: G-protein coupled receptor 55 (Homo sapiens, UniProt Q9Y2T6); experiment: GPR55 antagonists blocking LPI-driven arrestin recruitment, primary screen, imaging, U2OS, beta-arrestin-GFP, LPI agonist (AID 2013); format: functional;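 also: antagonist potency measured as reduced agonist-driven arrestin aggregation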
# G-protein coupled receptor 55, sequence (Q9Y2T6 whole entry): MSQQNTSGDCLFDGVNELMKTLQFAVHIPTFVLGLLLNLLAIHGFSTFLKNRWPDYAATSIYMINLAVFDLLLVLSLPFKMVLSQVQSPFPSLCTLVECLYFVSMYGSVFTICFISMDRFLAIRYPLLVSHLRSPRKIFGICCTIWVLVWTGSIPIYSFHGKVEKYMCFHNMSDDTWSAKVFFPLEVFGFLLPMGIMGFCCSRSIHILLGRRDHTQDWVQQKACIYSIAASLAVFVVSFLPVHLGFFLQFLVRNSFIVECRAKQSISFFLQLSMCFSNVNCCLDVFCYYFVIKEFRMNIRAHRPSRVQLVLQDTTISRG
# [12] = molecular target: T3, Short transient receptor potential channel 4 (Mus musculus, UniProt Q9QUQ5); experiment: mouse TRPC4 channel inhibitors, dose response, cell-based, HEK293 TRPC4/mu-opioid, Fluo-4 calcium (AID 434942); format: functional;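 also: potency of inhibitors blocking the TRPC4 calcium response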
# T3 sequence (Q9QUQ5 whole entry): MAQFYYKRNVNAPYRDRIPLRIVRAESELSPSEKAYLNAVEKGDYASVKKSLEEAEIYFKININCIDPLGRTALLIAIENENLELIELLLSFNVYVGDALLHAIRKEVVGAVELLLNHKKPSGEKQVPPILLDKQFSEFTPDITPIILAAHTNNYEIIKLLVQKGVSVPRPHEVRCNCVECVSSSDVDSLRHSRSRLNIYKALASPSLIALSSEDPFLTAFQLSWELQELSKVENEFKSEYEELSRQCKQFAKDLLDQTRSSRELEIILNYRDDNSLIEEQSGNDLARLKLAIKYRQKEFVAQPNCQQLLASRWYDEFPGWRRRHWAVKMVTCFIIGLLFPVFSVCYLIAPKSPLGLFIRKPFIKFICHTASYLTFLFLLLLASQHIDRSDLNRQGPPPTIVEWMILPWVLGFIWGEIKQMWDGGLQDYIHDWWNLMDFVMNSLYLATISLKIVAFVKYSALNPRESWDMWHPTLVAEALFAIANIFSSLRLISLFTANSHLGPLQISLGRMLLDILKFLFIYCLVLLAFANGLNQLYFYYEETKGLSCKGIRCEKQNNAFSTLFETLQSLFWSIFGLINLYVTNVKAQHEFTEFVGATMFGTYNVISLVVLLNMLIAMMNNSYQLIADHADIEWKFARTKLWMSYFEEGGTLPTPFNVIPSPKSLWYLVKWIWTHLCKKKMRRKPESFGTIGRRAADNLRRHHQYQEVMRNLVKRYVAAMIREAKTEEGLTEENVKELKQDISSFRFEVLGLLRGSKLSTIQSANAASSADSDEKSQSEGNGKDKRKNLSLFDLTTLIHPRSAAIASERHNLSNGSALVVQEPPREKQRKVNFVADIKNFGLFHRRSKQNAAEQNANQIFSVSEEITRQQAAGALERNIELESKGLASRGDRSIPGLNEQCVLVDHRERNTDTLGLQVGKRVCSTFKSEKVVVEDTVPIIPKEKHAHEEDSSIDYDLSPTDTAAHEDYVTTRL
# [13] = molecular target: FAD-linked sulfhydryl oxidase ALR (Homo sapiens, UniProt P55789); experiment: inhibitors of human ALR sulfhydryl oxidase, dose response, biochemical, H2O2 detection, luminescence, cherry-pick (AID 493248)
# FAD-linked sulfhydryl oxidase ALR, sequence (P55789 whole entry): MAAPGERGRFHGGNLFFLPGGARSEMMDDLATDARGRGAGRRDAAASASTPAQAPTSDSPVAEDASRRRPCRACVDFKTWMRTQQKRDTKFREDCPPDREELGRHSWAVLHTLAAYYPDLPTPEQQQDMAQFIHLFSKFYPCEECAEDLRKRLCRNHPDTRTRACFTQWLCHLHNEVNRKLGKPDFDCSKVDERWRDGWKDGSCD
# Bcl-2-related protein A1 = molecular target: T4, Bcl-2-related protein A1 (Mus musculus, UniProt Q07440); format: functional;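 also: confirmatory dose–response counterscreen on Bfl-1, used to check hits from a UBC13 polyubiquitin inhibitor campaign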
# T4 sequence (Q07440 whole entry): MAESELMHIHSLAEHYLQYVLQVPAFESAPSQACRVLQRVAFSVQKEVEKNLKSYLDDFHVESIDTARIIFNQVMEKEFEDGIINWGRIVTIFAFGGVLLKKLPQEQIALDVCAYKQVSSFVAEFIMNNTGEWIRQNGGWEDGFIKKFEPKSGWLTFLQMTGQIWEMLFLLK
# [14] = molecular target: T5, Ubiquitin-conjugating enzyme E2 N (Homo sapiens, UniProt P61088); format: functional
# T5 sequence (P61088 whole entry): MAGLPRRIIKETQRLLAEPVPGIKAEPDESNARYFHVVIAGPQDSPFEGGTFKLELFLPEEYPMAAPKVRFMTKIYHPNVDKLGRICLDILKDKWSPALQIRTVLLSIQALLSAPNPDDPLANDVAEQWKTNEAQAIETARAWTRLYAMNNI
# [15] = molecular target: T5, Ubiquitin-conjugating enzyme E2 N; format: functional; remark: listed apart in the source
# [16] = molecular target: T6, Calpain-2 catalytic subunit (Sus scrofa, UniProt P43367); experiment: pig calpain II inhibitor potency, dose response, biochemical, fluorogenic peptide substrate (AID 1420); format: functional
# T6 sequence (P43367 whole entry): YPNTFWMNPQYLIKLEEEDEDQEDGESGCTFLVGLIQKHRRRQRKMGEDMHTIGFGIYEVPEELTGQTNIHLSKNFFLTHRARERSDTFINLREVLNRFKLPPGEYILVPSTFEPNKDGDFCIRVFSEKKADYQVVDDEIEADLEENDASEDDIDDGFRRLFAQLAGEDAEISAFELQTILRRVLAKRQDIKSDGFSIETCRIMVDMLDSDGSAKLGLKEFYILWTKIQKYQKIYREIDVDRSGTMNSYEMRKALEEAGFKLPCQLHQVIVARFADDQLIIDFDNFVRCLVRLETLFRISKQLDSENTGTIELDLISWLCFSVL
# Prothrombin = Prothrombin (Homo sapiens, UniProt P00734); experiment: Thrombin 1536 HTS Dose Response Confirmation. [Related pubchem assays: 1046 (Thrombin 1536 HTS; hits were confirmed in this assay)]; format: functional
# [17] = HEp-2 cell cytotoxicity, dose response, cytotoxicity control for RSV inhibitor project, HTS (AID 2410); format: functional; settings: human respiratory syncytial virus
# [18] = THP-1 cell cytotoxicity, dose response, cytotoxicity control for non-replicating M. tuberculosis project (AID 489025); format: functional
# [19] = molecular target: T7, Heat shock factor protein 1 (Mus musculus, UniProt P38532); experiment: HSF1 potentiators in luciferase reporter cells, confirmation, cell-based, NIH3T3, luminescence, dose retest (AID 435004); format: functional;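 also: stress induced by proteasome inhibitor MG132 added 30 min after compound; luciferase reporter driven by HSF1 response element in NIH3T3 cells; actives raise luminescence as potentiators of the MG132 stress response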
# T7 sequence (P38532 whole entry): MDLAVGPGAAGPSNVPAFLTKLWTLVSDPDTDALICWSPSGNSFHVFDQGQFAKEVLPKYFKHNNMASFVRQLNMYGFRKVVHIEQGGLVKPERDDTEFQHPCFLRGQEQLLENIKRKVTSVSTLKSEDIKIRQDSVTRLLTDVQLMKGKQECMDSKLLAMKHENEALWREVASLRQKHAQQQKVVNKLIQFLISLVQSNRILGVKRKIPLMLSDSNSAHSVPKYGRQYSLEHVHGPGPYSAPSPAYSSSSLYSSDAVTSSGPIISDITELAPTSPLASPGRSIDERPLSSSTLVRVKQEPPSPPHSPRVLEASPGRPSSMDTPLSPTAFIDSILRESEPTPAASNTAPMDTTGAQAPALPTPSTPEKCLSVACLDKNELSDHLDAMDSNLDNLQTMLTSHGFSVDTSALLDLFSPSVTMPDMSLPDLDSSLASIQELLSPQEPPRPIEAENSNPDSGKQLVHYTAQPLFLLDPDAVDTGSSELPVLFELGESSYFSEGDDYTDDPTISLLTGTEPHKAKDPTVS
smiles,measurement,setting,value
Cc1occc1C(=O)N/N=C/C=C/c1ccccc1,EC50,[1],> 50 µM (active)
COc1cc(CNC2CCCC2)cc(Cl)c1OCc1ccccc1F,EC50,[2],2.01 µM (active)
same,EC50,[3],19.9 µM (active)
same,EC50,[4],> 60 µM (not active)
same,EC50,[5],19.1 µM (active)
CCCCSc1nnc(N)[nH]1,IC50,[6],> 100 µM (not active)
same,IC50,[7],> 100 µM (inactive)
COc1ccc(NC(=O)CN2CCN(c3ccccc3F)CC2)cc1,IC50,[8],> 100 µM (not active)
c1ccc(-c2nn[nH]c2-c2ccccc2)cc1,IC50,[8],> 100 µM (not active)
CCOc1ccccc1-n1c(SCC(=O)NC(C)(C)C)nnc1-c1ccoc1C,IC50,[8],> 100 µM (not active)
C1=C(CCNCc2ccccc2)CCCC1,EC50,[1],> 50 µM (active)
CCN1C(NCCc2c[nH]c3ccccc23)=N[C@@H](c2ccccc2)[C@H](C(=O)OC)[C@H]1C,IC50,[9],6.29 µM (active)
same,IC50,[10],8.65 µM (active)
C=C(c1ccc(O)cc1)c1ccc(O)cc1,IC50,[11],1.75 µM (active)
same,EC50,[12],3.76 µM (active)
same,AC50,[13],0.205 µM (active)
O=C(C[n+]1ccc(CCSc2ccc(F)cc2)cc1)c1ccccc1,IC50,Bcl-2-related protein A1,5.2 µM (active)
same,IC50,[14],1.46 µM (active)
same,IC50,[15],1.02 µM (active)
O=S(=O)(Nc1ccccc1I)c1cnc2ccccc2c1,IC50,[6],> 10 µM (inconclusive)
same,IC50,[7],> 10 µM (inactive)
S=c1[nH]nc(CSCc2ccccc2Cl)n1C1CCCCC1,IC50,[11],3.7 µM (active)
same,IC50,[16],11.1 µM (not active)
CCOc1cc(S(=O)(=O)Nc2cccnc2)c(OCC)cc1C,IC50,[7],2.61 µM (active)
C=CCN1C(=O)C(C(C)CC)NC1=S (stereo unspecified),IC50,Prothrombin,> 50 µM (not active)
COCCN(CCOC)S(=O)(=O)c1ccc(C(=O)Nc2nc3c(s2)CCc2ccccc2-3)cc1,EC50,[3],8.49 µM (active)
same,EC50,[5],13.1 µM (active)
Nc1nc2c(s1)CCCCCCCCCC2,IC50,[9],7.08 µM (active)
same,IC50,[10],4.49 µM (active)
O=C1CCC(C(=O)Nc2cccc3ccccc23)N1 (stereo unspecified),IC50,Prothrombin,> 50 µM (not active)
CC(C)(C)n1nc2c(c1NC(=O)Cc1cccs1)CSC2,EC50,[1],> 50 µM (active)
COc1ccc(-c2nnc(SCC(=O)Nc3sc4c(c3C#N)CCCC4)n2-c2ccccc2)cc1,CC50,[17],9.89 µM (active)
same,EC50,[3],5.14 µM (active)
same,EC50,[5],5.75 µM (active)
CC1=NN(C(=O)c2ccc(Cn3nc(C)c(Br)c3C)cc2)C(O)(C(F)(F)F)C1 (stereo unspecified),CC50,[18],34 µM (active)
C=C(C)CN(CC)C(=O)CC1C(=O)NCCN1CC(C)(C)C (stereo unspecified),IC50,Prothrombin,> 50 µM (not active)
CC(C)[N+](C)(C)CC(O)CN(c1ccccc1)c1ccccc1 (stereo unspecified),IC50,[9],3.2 µM (active)
same,IC50,[10],2.65 µM (active)
O=C(CC1(O)C(=O)Nc2ccc(Br)cc21)c1ccc2c(c1)OCO2 (stereo unspecified),EC50,[1],> 50 µM (active)
same,IC50,Prothrombin,2.3 µM (active)
same,EC50,[19],> 260 µM (inactive)
